This note sets out measurements from publication PMC12163684, “Gunacins: Novel Benzo[g]chromene Derivatives from the Fungus Exobasidium sp. and Their Potent Anti-Leishmania and Trypanosoma Activities” (ACS Omega, 2025).

Like-named read-outs stand apart in the source and are kept apart here.

One test deals with T. b. evansi AnTat 3/3. Kind of test: Anti-trypanosomal activity, resazurin (AB assay), bloodstream form. Conditions: Trypanosoma brucei, 72 h, axenic, 48 h + 24 h resazurin. The test is classed as cell-based, T. brucei evansi. Here is the method:
(§1) The bloodstream forms of T. b. gambiense LiTat 1.3, T. b. brucei 427, and T. b. evansi AnTat 3/3 were grown in HMI-11 medium pH 7.3 supplemented with 36 mM sodium bicarbonate, 100 U/mL penicillin/streptomycin, and 10% fetal bovine serum at 37 °C and 5% CO2. The bloodstream form of Trypanosoma congolense IL3000 (generous gift from Liam Morrison) was cultured in TcBSF-1 medium pH 7.3 supplemented with 26 mM sodium bicarbonate, 25 mM HEPES, 5.5 mM glucose, 1 mM sodium pyruvate, 0.04 mM adenosine, 0.1 mM hypoxanthine, 0.02 mM thymidine, 0.02 mM bathocuproine, 2 mM L-glutamine, 0.2 mM 2-mercaptoethanol, 100 U/ml penicillin/streptomycin, and 20% goat serum New Zealand origin (Gibco) at 34 °C, 5% CO2. The assay for anti-trypanosomal activity was performed using the resazurin sodium salt dye (AB Assay) according to the published protocol in a 96-well plate format. Parasites at a number of 5 × 10^3 per well (T. b. brucei and T. b. gambiense) or 1 × 10^4 per well (T. b. evansi) were incubated with different drug concentrations (2-fold serial dilutions) in a volume of 200 μL of the medium. Medium with 1% DMSO (the highest concentration of the solvent used in the assay) was used to confirm no effect of the solvent on the cell growth. The plates were incubated for 48 h at the appropriate temperature. Then, 20 μL of resazurin sodium salt solution (0.125 mg/mL in 1× PBS, pH 7. 4) was added to each well, and the cells were incubated for another 24 h under the same conditions. The fluorescence signal was quantified using a Tecan Infinite M200 plate reader at excitation and emission wavelengths of 560 and 590 nm, respectively. The EC50 values were calculated using GraphPad Prism 9.5.1 by nonlinear regression with a variable slope. Each EC50 value is the mean ± standard error of the mean of three separate experiments performed in duplicate.
A general note: The colour change of resazurin is a common sign of viable cells or microbes.

In test [1] the test system is T. b. gambiense LiTat 1.3. Described as above. The test is classed as cell-based, T. brucei gambiense. Conditions: Trypanosoma brucei, 72 h, axenic, 48 h + 24 h resazurin. On the procedure:
as §1

The subject of the next test is T. b. brucei 427. Described as above. The test is classed as cell-based. The settings on record: Trypanosoma brucei, 72 h, axenic, 48 h + 24 h resazurin. Here is the method:
as §1

Test [2] relates to Trypanosoma congolense IL3000. The description is as above. The test is classed as cell-based. The settings on record: 72 h, axenic, 48 h + 24 h resazurin, read-out: EC50 T. congolense. On the procedure:
as §1

Test [3] relates to primary human skin fibroblasts. Put plainly: Effect on cell morphology, fluorescence microscopy (MitoTracker Red CMXRos, Phalloidin, DAPI). The settings on record: 24 h; for concentration at which effects on morphology / mitochondrial signal were observed, fibroblasts: tested at 5, 25, 50, 100, 125 μM. The test is classed as cell-based. On the procedure: (§2) MDCK and RAT cells were cultured in DMEM with 10% FBS at 37 °C in a 5% CO2 atmosphere as described previously. , To assess the toxic effects of the compounds on proliferating cells, cells were seeded in 24-well plates for 24 h to reach ∼15% confluence, and cells were treated in triplicate with increasing concentrations of the isolated compounds for an additional 24 h. Cells were washed with 1× PBS, fixed in staining solution (0.5% crystal violet, 20% methanol) for 10 min, and gently washed five times in 1× PBS. The fixed cells were then dissolved in lysis solution (0.1 M sodium citrate, 25% ethanol, pH 4.2) for 30 min, transferred to a 96-well plate in H2O, and the OD^590 was determined. EC50 values were determined using GraphPad Prism software and the dose–response fit equation. The EC50 values were determined from two independent experiments. Additionally, the impact of the isolated substances on the morphology of the HeLa adenocarcinoma cell line and primary human skin fibroblasts was examined by using fluorescence microscopy. Cells were cultured in DME medium supplemented with 10% FCS (Gibco, Invitrogen, Carlsbad, USA) on glass coverslips in 24-well plates until reaching approximately 50% confluence. The cells were treated with varying concentrations of isolated compounds dissolved in DMSO. Wells containing DMEM with DMSO served as the negative control. After 24 h cultivation, the cells were incubated with MitoTracker Red CMXRos (10 min) to label mitochondria, then fixed with 3.7% paraformaldehyde in PBS (20 min, room temperature), permeabilized with 0.1% Triton X-100 in PBS, and blocked with 1% BSA in PBS. The cells were then stained with Phalloidin-Alexa Fluor488 conjugate. All fluorescence reagents were purchased from Molecular Probes, Invitrogen, Carlsbad, CA, USA. Nuclei were stained with Fluoroshield DAPI (Sigma-Aldrich), and cells were examined using an IX71 microscope equipped with a DP70 camera and a 40× objective. Assays were performed at concentrations of 5, 25, 50, 100, and 125 μM.

Test [4] deals with HeLa adenocarcinoma cell line. Described as above. Format: cell-based. Conditions: 24 h; for concentration at which effects on morphology / mitochondrial signal were observed, HeLa cells: tested at 5, 25, 50, 100, 125 μM. Here is the method: as §2
In another test the test system is RTL-W1 cell line. Put plainly: Cell viability assay with fluorescent indicators AB, CFDA-AM and NR. The settings on record: Oncorhynchus mykiss, 24 h exposure, n.d. = activity not detected at highest tested concentration 150 μM. The test is classed as cell-based, rainbow trout (Oncorhynchus mykiss). Here is the method: Cell viability assay was determined on cell line RTL-W1 (obtained from Eawag, Switzerland; liver tissue) of rainbow trout (Oncorhynchus mykiss) according to the modified procedure of Dayeh (2005). A combination of three fluorescent indicators, alamarBlue (AB), 5-carboxyfluorescein diacetate acetoxymethyl ester (CFDA-AM), and NR was used to assess different mechanisms of toxic action, evaluate the general cellular response and increase the sensitivity of the cytotoxicity tests. […] After 24 h of incubation in microculturing plates, the cells were exposed to concentration series of isolated compounds in 0.5% DMSO for another 24 h. After the exposition, the solutions were removed from individual wells followed by the washing step and the addition of 100 μL of a dye solution containing 0.625% AB and 0.4 μM CFDA-AM in […]. The cells were incubated at room temperature for 30 min, and the fluorescence was measured at excitation/emission wavelengths of 535/590 nm for the AB assay and 485/535 nm for the CFDA-AM assay. Afterward, the dye solution was removed, the cells were rinsed, and 100 μL of the NR solution was added (0.03 mg/mL in […]). After 60 min of incubation, the cells were rinsed twice, and NR was extracted from the cells using 150 μL of a solution consisting of 1% (v/v) glacial acetic acid in 50% (v/v) ethanol. The content of each well was repeatedly homogenized using a pipet, and the fluorescence was measured at excitation/emission wavelengths of 535/630 nm.

[5] abbreviates: Alamar Blue, cellular metabolic activity, read-out: EC50 ± SEM RTL-W1 (AB).
Setting [6] is: CFDA-AM, cell membrane integrity, read-out: EC50 ± SEM RTL-W1 (CFDA).
[7] abbreviates: Neutral Red, lysosomal membrane integrity, read-out: EC50 ± SEM RTL-W1 (NR).

With `COc1cc(O)c2c(c1)C(=O)C1=C(C2=O)[C@H](O)[C@@H](O)[C@@H](C)O1` (relative stereo) [Compound 3, (2R,3R,4S)-3,4,6-trihydroxy-8-methoxy-2-methyl-3,4-dihydro-2H-benzo[g]chromene-5,10-dione], the EC50 in the test with T. b. evansi AnTat 3/3 was 4200 nM; in test [1], 4100 nM; in the test with T. b. brucei 427 it was 4300 nM; in test [2], 5800 nM. In addition, the “concentration at which effects on morphology / mitochondrial signal were observed, fibroblasts” value in test [3] came to 125 μM. For the same molecule, the “concentration causing complete loss of live adherent cells, HeLa cells” value in test [4] worked out at 125 µM. Besides, the “concentration at which effects on morphology / mitochondrial signal were observed, HeLa cells” value in test [4] is 25 μM.

For the molecule `COc1cc(O)c2c(c1)C(=O)C1=C(C2=O)[C@@H](OC(C)=O)[C@@H](O)[C@@H](C)O1` [Compound 1, (2R,3S,4R)-3,6-dihydroxy-8-methoxy-2-methyl-5,10-dioxo-3,4,5,10-tetrahydro-2H-benzo[g]chromen-4-yl acetate], the EC50 with T. b. evansi AnTat 3/3 came to 30 nM; in test [1], 40 nM; with T. b. brucei 427, 60 nM; in test [2] it was 20 nM; in the test on RTL-W1 cell line (setting [5]), 500 nM; in the test with RTL-W1 cell line (setting [6]), 800 ± 100 nM. For the same molecule, the EC50 with RTL-W1 cell line (setting [7]) stood at 300 nM. Further, in test [3], the “concentration at which effects on morphology / mitochondrial signal were observed, fibroblasts” value was 5 μM. Further, the “concentration at which effects on morphology / mitochondrial signal were observed, HeLa cells” value in test [4] was found to be 125 μM.

As to `COc1cc(O)c2c(c1)C(=O)C1=C(C2=O)[C@@H](O)[C@@H](OC(C)=O)[C@@H](C)O1` [Compound 5, (2R,3R,4R)-4,6-dihydroxy-8-methoxy-2-methyl-5,10-dioxo-3,4,5,10-tetrahydro-2H-benzo[g]chromen-3-yl acetate], the EC50 in the test on T. b. evansi AnTat 3/3 was 40 nM; in test [1], 30 nM; in the test with T. b. brucei 427 it was 60 nM; in test [2], 20 nM; in the test on RTL-W1 cell line (setting [5]), 2500 ± 300 nM; in the test with RTL-W1 cell line (setting [6]), 2100 ± 100 nM. The EC50 in the test with RTL-W1 cell line (setting [7]) amounted to 900 ± 100 nM. In addition, the “concentration at which effects on morphology / mitochondrial signal were observed, fibroblasts” value in test [3] was 5 μM. Further, the “concentration at which effects on morphology / mitochondrial signal were observed, HeLa cells” value in test [4] stood at 125 μM.

Turning to `COc1cc(O)c2c(c1)C(=O)C1=C(C[C@@H](OC(C)=O)[C@@H](C)O1)C2=O` [Compound 7, (2R,3R)-6-hydroxy-8-methoxy-2-methyl-5,10-dioxo-3,4,5,10-tetrahydro-2H-benzo[g]chromen-3-yl acetate], the EC50 in the test with T. b. evansi AnTat 3/3 came to 700 nM; in test [1], 5700 nM; with T. b. brucei 427, 900 nM; in test [2], 2400 nM. For the same molecule, the “concentration causing complete loss of live adherent cells, fibroblasts” value in test [3] is 125 µM. In addition, the “concentration at which effects on morphology / mitochondrial signal were observed, fibroblasts” value in test [3] is reported as over 25 μM. The “concentration at which effects on morphology / mitochondrial signal were observed, HeLa cells” value in test [4] is listed as over 125 μM.

What is called EC50 is the concentration that produces a half-maximal response.
